Assay: Human HepG2 cell viability assay in 384 well format
Type: toxicity, cell-based
Design: dose 125 nL, time 70.5 hour; concentration not given beside the values
Conditions: HepG2 cells, read-out: Inhibition

Row | SMILES | cytotoxicity at 70.5 h [%]
1 | COCCCNC(=O)NCc1ccc(C)cc1 | 8.59
2 | CC(C)(C)c1cnc(CNc2cccc(Cn3cnnc3)c2)o1 | -2.54
3 | CC(C)c1nc(CN(C)C(=O)C(O)c2ccc(Cl)cc2)cs1 (centres undefined) | -0.849
4 | O=C1CC(c2ccccc2Br)c2sc(N3CCOCC3)nc2N1 (centres undefined) | 2.49
5 | COC(=O)CS(=O)(=O)CCC(=O)N1CCCC1c1ccsc1 (centres undefined) | -2.16
6 | Cc1cccc(-c2nc(CN3CCOCS3(=O)=O)c(C)o2)c1 | -6.34
7 | COc1ccc(C(=O)NC2COc3ccccc3C2)cc1OCC(=O)O (centres undefined) | -4.51
8 | CCN(Cc1noc(CC(C)C)n1)Cc1ccccc1Cl | 1.69
9 | c1cnc(N2CCC3(CCN(CC4CCOC4)CC3)C2)nc1 (centres undefined) | -1.96
10 | CN(CCC#N)C(=O)CN1CCCC1c1cccs1 (centres undefined) | -4.47
11 | Cc1cccc(N2CCN(C(=O)CC3(O)CCCC3)C(C)C2)n1 (centres undefined) | 0.326
12 | COc1cccc2c(=O)n(Cc3ccnc(C)c3)cnc12 | -26.7
13 | COc1ncc(-c2c(C#N)c(N)nc3c2CCc2[nH]ccc2-3)cn1 | -4.69
14 | CC(C)c1ccc(/C=C/CC(=O)NC2CCS(=O)(=O)CC2)cc1 | -1.79
15 | CNC(=O)CN1C(=O)CCC12CCCN(Cc1cccc(F)c1)C2 (centres undefined) | -6.75
16 | CNC(=O)N1CCc2nc(C(=O)NCc3cccc(OC)c3)sc2CC1 | 18
17 | Cn1cc(CN2C[C@H]3CCC[C@@H](CNc4nccn4C)[C@H]3C2)cn1 | -3.76
18 | COCCOc1ccccc1C(=O)Nc1c(C)cnn1CC1CC1 | -6.01
19 | COCCN(Cc1cnn(C)c1)C(=O)C1CCN(C2CCCCC2)CC1 | -10.8
20 | Cc1cn2c(n1)CCC(NC(=O)c1nc(C)ncc1Cl)C2 (centres undefined) | -8.31
21 | CCc1nc(N)nc(N2CCCC3(CN(C)C(=O)O3)C2)c1C (centres undefined) | -10.4
22 | Cc1nc(CN(CCS(C)(=O)=O)C(C)C)no1 | -5.83
23 | CC(C)NC(=O)N1CCc2nc(C(=O)NCc3ccccc3)sc2CC1 | -15.4

Row | SMILES | cytotoxicity at 70.5 h [%]
24 | CCCn1ncc(CN(CCN(C)C)Cc2ccsc2)c1C | 31.8
25 | COc1c(CNCc2ccnc(N3CCCC3)c2)c(C)nn1C | -0.752
26 | CCN1CCC(CNC(=O)C2(c3cccc(C)c3)CCCCC2)CC1 | 1.1
27 | Cc1cnn(CCNCC(=O)NCC2(c3ccccc3)CC2)c1 | 31.1
28 | CN(CC(=O)NC(C)(C#N)C1CC1)Cc1nnc(C2CC2)n1C (centres undefined) | 1.7
29 | Cc1ccc(C2CCCN2CC(=O)N(CCC#N)c2ccccc2)cc1 (centres undefined) | -7.81
30 | COCC(=O)NCC1Cn2nnc(-c3ccoc3)c2CO1 (centres undefined) | -6.95
31 | CCCc1nnc2sc(C3CCN(C4CCN(C)CC4)CC3)nn12 | -12.7
32 | CC(C)n1nc2c(cc1=O)CN(CCCN1CCCC1=O)CC2 | -9.82
33 | CC(C)CN1CC(C(=O)NCc2ccnc(-n3cccn3)c2)CC1=O (centres undefined) | 12.8
34 | COc1cc(C)cc(C(C(=O)O)N2CCN(C3CCCC3)CC2)c1OC (centres undefined) | -2.66
35 | CNC(=O)c1ccc(CN2CCC(N(C)Cc3noc(C)n3)C2)cc1 (centres undefined) | -0.459
36 | CC(C)c1nccn1CCCNC(=O)c1ccc(-c2cn[nH]c2)nc1 | -3.19
37 | O=c1c(NCCNCCO)c(N2CCN(Cc3ccccc3)CC2)c1=O | -3.52
38 | CN(C)CCNC(=O)C1Cc2nc(-c3ccsc3)sc2N1CC1CC1 (centres undefined) | -4.49
39 | CCC1CN(C(=O)NCCOc2ccc3c(c2)OCO3)CCO1 (centres undefined) | -19.8
40 | CCN1CCCC1CNCc1cc2cc(C)c(C)cc2[nH]c1=O (centres undefined) | -2.24
41 | Fc1ccc(CN2CCCC(Cn3cncn3)C2)c2ncccc12 (centres undefined) | -5.13
42 | COc1cccc(S(=O)(=O)NC(=O)CC2CCCC2)c1 | -3.66
43 | CN(C)C(=O)[C@H]1CO[C@H]2CCN(c3ncc(F)cn3)C[C@H]2C1 | -8.69
44 | CCOCCCNC(=O)c1cn(C(C)(C)C)c2ncccc12 | 20.9
45 | COCCC(=O)N1CCN(CC2CC2)c2ncccc2C1 | 8.88
46 | CC(=O)NC[C@]1(O)CCN(C(=O)c2ccc3c(c2)OCO3)C[C@H]1O | -4.98

Row | SMILES | cytotoxicity at 70.5 h [%]
47 | Cc1ccc(C#N)c(N2CC(C)(C)[C@@](C)(O)C2)n1 | -6.73
48 | NC(=O)N1CCCN(C2CCc3ccc(F)cc32)CC1 (centres undefined) | -1.61
49 | Cc1nonc1C1CCCN1Cc1ccc(C(=O)Nc2nccs2)cc1 (centres undefined) | 9.65
50 | Cc1noc(C(C)C)c1C(=O)NCc1ccc(N(C)C)c(F)c1 | -9.82
51 | O=C(CSc1ccncc1)N1CCC2(CC1)c1ccccc1CC2O (centres undefined) | -5.15
52 | Cn1cc(Br)cc(NC(=O)CC(C)(C)C)c1=O | -13.2
53 | CC(CCN1CCCC1=O)NCc1cnc(C2CCC2)s1 (centres undefined) | -6.2
54 | C[C@@H]1CN(C2CCN(c3ccccc3)CC2)CC[C@@]1(O)C1CCOCC1 | -3.71
55 | O=C(CCc1cc(Br)cs1)NCCCn1ccnc1 | 5.85
56 | COCCC(=O)N1CCc2nc(N3CCOCC3)nc(NC(C)C)c2C1 | -17
57 | COc1ncc(C(=O)N2CCC(c3nc(C)n4ccsc34)CC2)cn1 | 24.2
58 | CN1CCC(N(Cc2ccncc2)Cc2nc3c(s2)CCCC3)CC1 | -11.2
59 | COc1cc(OC)cc(N2CCC(NC(=O)c3cccn3C)CC2)c1 | -13.4
60 | Cc1cccc(C(Nc2nccc(-c3ccc(C)nc3C)n2)C2CC2)n1 (centres undefined) | -3.12
61 | CCN(CC)C1CCN(C(=O)c2cc(-n3cccn3)ccc2Cl)CC1 | -0.746
62 | Oc1cccc(C2CN(c3nnc(C4CC4)s3)CCO2)c1 (centres undefined) | -4.99
63 | O=C(NCc1ccco1)N(CCCO)C1CCCc2ccccc21 (centres undefined) | -5.76
64 | C=C(C)COCCNC(=O)C1CCCN1C(C)=O (centres undefined) | -13.6
65 | CC(C)NC(=O)[C@H]1C[C@@H]2[C@@H](C1)OCCN2Cc1cccs1 | -2.88
66 | Cc1nc(C)n(CC2CCCN2CCCOc2ccc(F)cc2)n1 (centres undefined) | 6.79
67 | Cc1ccc(-c2noc(C3CCN3C(=O)c3c(C)noc3C)n2)s1 (centres undefined) | -3.14
68 | CCOc1ccccc1C(CC(=O)Nc1nc(C)cs1)NC(C)=O (centres undefined) | -8.99
69 | O=S(=O)(c1cccnc1)N1CCC(OCCCc2ccccc2)C1 (centres undefined) | -0.248

Row | SMILES | cytotoxicity at 70.5 h [%]
70 | Cn1ncc(C(=O)O)c1C(=O)Nc1nc2ccc(Br)cc2s1 | 14.8
71 | CN1C(=O)C2(CC(=O)Nc3[nH]ncc32)c2cc(F)ccc21 (centres undefined) | -19.4
72 | CCS(=O)(=O)N1CC[C@]2(C[C@@H](OCC3CC3)CO2)C1 | -8.16
73 | Cc1cc(C2CCCCN2C(=O)c2ccsc2)nc2nccn12 (centres undefined) | 6.22
74 | CCOCC(O)CN1CCN(C(=O)c2cccc(CC#N)c2)CC1 (centres undefined) | -1.07
75 | CC1CS(=O)(=O)CCN1Cc1ccccc1OCC(F)(F)F (centres undefined) | -6.75
76 | Cn1ncc2c1CN(C(=O)Cc1ccccn1)CC2COCC1CC1 (centres undefined) | -10.6
77 | Cc1cc(N2CCOC(C)(C(=O)N(C)C)C2)ncn1 (centres undefined) | -6.62
78 | COCCc1noc(CN(C)c2nc(C)cc(C)n2)n1 | -9.27
79 | c1ccc(-n2ncc(CNCC3CCCN3c3cccnn3)n2)cc1 (centres undefined) | 5.2
80 | CCn1cnnc1CNC(=O)N(C)Cc1ccccc1OC | -4
81 | CSc1ccc(C(C(=O)O)N2CCOCC2)cc1 (centres undefined) | -11.2
82 | CCn1nc2c(cc1=O)CN(Cc1nc(-c3ccccn3)no1)CC2 | -1.12
83 | COc1cccc(F)c1C(C)NC(=O)NCc1ccnc(C)n1 (centres undefined) | 26.5
84 | COC(=O)c1ccc2ccn(CC3CCCCO3)c(=O)c2c1 (centres undefined) | -4.76
85 | CS(=O)(=O)c1ccc(CN2CCCCC2c2ccc(F)cc2)cc1 (centres undefined) | 17.4
86 | CCn1cc(CN2CCCN(C(=O)CCc3cccs3)CC2)cn1 | -12.3
87 | CCN(CC1CN(Cc2ncc[nH]2)CCO1)c1cccnn1 (centres undefined) | -6.7
88 | CN(Cc1noc(C(C)(C)C)n1)Cc1ccccc1N1CCCCC1 | -6.13
89 | Cc1ccc(-c2noc(CNCC3CN(C)CCO3)n2)cc1F (centres undefined) | -5.24
90 | Cc1nc(CN2CCCN(C(=O)c3c(C)oc(C)c3C)CC2)cs1 | -10
91 | CC(=O)N1C[C@@H]2CC[C@H](C1)N(S(=O)(=O)c1ccc(F)cc1Cl)C2 | -6.08
92 | Cn1nnnc1SCCNC(=O)C1CCN(C(=O)C2CC2)CC1 | 24.5

Row | SMILES | cytotoxicity at 70.5 h [%]
93 | Cc1noc(C)c1CCCNC(=O)C1CCCN(C(=O)C2CC2)C1 (centres undefined) | -0.841
94 | O=C(CO)N1CCc2onc(Cn3cccn3)c2C1 | -13.8
95 | Cc1cc(C(=O)NCC(Cc2cccc(F)c2)N2CCCCC2=O)no1 (centres undefined) | -2.65
96 | O=C(Cc1ccccn1)N1CC[C@]2(C[C@@H](Oc3ncccc3F)CO2)C1 | 2.46
97 | O=C(c1ccc(-n2ccnc2)nc1)N1CCN2CCCCC2C1 (centres undefined) | -10.4
98 | COc1cccc(OCC(=O)NS(=O)(=O)c2ccc(C)s2)c1 | 14
99 | CCc1oc(C(=O)NCCc2nc(C(=O)O)cs2)cc1CN1CCCC1 | -3.56
100 | CC(=O)NCc1ccc(C(=O)N2CCCc3c(F)ccc(C)c32)o1 | -2.6
101 | CNC(=O)[C@@H](c1ccccc1)N1CCC[C@H]1C(=O)NCc1ccccn1 | -6.43
102 | CC(C)N1CC2(CCCN(c3ccccn3)C2)CCC1=O (centres undefined) | -6.62
103 | CN(C)S(=O)(=O)N1CC(c2nc(-c3ccsc3)no2)C1 | -6.06
104 | COc1ccc(CNC[C@H]2Cn3ccnc3CO2)cn1 | -2.5
105 | Cc1ccc(C(=O)N(C)CC(=O)Nc2cccc(C)n2)cn1 | -6.04
106 | CC(=O)c1cccc(NC(=O)Cn2cnc(-c3ccccc3)cc2=O)c1 | -3
107 | CS(=O)(=O)NCc1cnc2n1CCN(Cc1ccoc1)CC2 | -9.11
108 | N#Cc1ccc(N2CCC3(CC2)COCCN3Cc2cccnc2)cc1 | -4.74
109 | CCn1cc(NC(=O)C2CCN(Cc3nc(C)c(C)o3)CC2)cn1 | -11.4
110 | Cc1nc(CN2CCN(C3CCOC3)Cc3cccnc32)cs1 (centres undefined) | -0.337
111 | COc1cc(CNc2cc(N3CCCC3CO)ncn2)ccn1 (centres undefined) | 24.7
112 | CCC(C)NS(=O)(=O)c1ccc(C(=O)NC2(C#N)CCC2)cc1 (centres undefined) | 39.3
113 | Cc1nc2c(c(NCC(c3cccnc3)N3CCOCC3)n1)CCNC2 (centres undefined) | -15.5
114 | CCS(=O)(=O)N1CCOCC2(CCN(c3ccccn3)C2)C1 (centres undefined) | -11.4

Reference: ChEMBL document CHEMBL3507680, “University of Dundee, Gates Library screen for HepG2 cell viability”
